Patent US9855225B2, “Cannabinoid receptor treatments” (TEMPLE UNIVERSITY OFFICE OF TECHNOLOGY TRANSFER, priority 2011, dated 2018)
Where “and” joins values, the source holds several entries; their conditions need not be identical. Identical values can stand only once. Like-named read-outs stand apart in the source and are kept apart here.

Experiments:
[1] = tested on: C57BL/6 responder splenocytes from WT mice; experiment: One-way mixed lymphocyte reaction (MLR), [3H]-thymidine incorporation, wild-type responder splenocytes; type: cell-based, mouse; settings: for Inhibition of the MLR: WT splenocytes, agonist 16 and 32 μM, 3 h
Protocol: The MLR assay is a common method used to evaluate the cellular immune responses from two different individuals or animals and is considered to be an in vitro correlate of skin and organ transplant rejection. Lymphocytes from two different populations can be incubated together in which the T cells recognize the foreign cells from the other strain, become activated, proliferate and take up tritiated thymidine ([^3H]-thymidine). Results from this assay (Examples 1, 2 and 4) are expressed as a Suppression Index (SI), where untreated spleen cells are given a value of 1.00 (100%), and responses of cultures receiving treatment with cannabinoids are calculated as: […]
All SI data were transformed to normalized ranks to accommodate non-normality of the data. ANOVA was used to test for significant differences between groups.
The aim of the next series of experiments was to test the hypothesis that suppression of proliferation in the MLR is a CB2 receptor-mediated function.

[2] = tested on: C57BL/6 responder splenocytes from WT mice; settings: added to unfractionated murine spleen cells; previously shown by the inventors; cited from earlier work
mouse splenocytes = settings: primary and secondary in vitro assays; earlier work of the inventors; cited from earlier work
MLR culture cells = experiment: Cell viability in MLR cultures by flow cytometry (LIVE/DEAD stain); type: cell-based, mouse; settings: parallel MLR cultures
Protocol: Lastly, cultures were run in parallel with each experimental MLR and tested by flow cytometry to assess viability using LIVE/DEAD® Fixable Dead Cell Stain Kit (Molecular Probes, Inc.; Eugene, Oreg.). Cells (1×10^6) from the culture were resuspended in 1 ml FCM Staining Buffer and incubated for 30 min at room temperature with 1 μl dead cell stain. Cells were washed twice and resuspended in FCM staining buffer and analyzed using an LSRII (BD Biosciences) flow cytometer, and the data were analyzed using FACSDiva™ software (BD Biosciences).

[3] = tested on: CD3+ cells (T cells) and CD11b+ cells; type: cell-based, mouse; settings: 1-32 μM, 3 hours, fractions added back
CD3+ T-cell population = experiment: mRNA expression (microarray/qPCR) in CD3+ T-cells from the MLR; type: cell-based, mouse; settings: 32 μM/ml, 18 hours, vs vehicle
Protocol: This experiment was carried out to screen for molecules that are modulated by exposure of mouse spleen cells to the CB2 receptor agonist (FIG. 6). The experiment used a commercial microarray (Qiagen) that tests the levels of 89 different mRNAs. Spleen cells were placed in culture to carry out a standard Mixed Lymphocyte Reaction (MLR) assay. Experimental wells received 32 μM/ml of the selective CB2 receptor agonist, O-1966, and control wells received vehicle (0.4% ethanol). […] The decrease in CD40L and Cyclin D3 mRNA was significant because CD40L is an activation molecule for T-cells, and Cyclin D3 is a molecule involved in cell division. T-cell activation and division are decreased after exposure to the selective CB2 receptor agonist.

IL-10 release in the MLR = experiment: IL-10 release in the MLR; type: cell-based, mouse; settings: 32 μM, supernatants after 24 hours
Protocol: An MLR assay was performed in which experimental wells received 32 μM/ml of O-1966 and control wells received vehicle (FIGS. 7 and 9). Supernatants were collected after 24 hours. […] IL-10 is an immunosuppressive cytokine, so its rise induced by the CB2 receptor agonist provides a mechanism of action for the cannabinoid in suppressing the MLR. In a separate MLR some wells received 1.6 μg/ml of anti-IL-10 antibody. Wells that received no antibody and 32 μM 0-1966 had 90% suppression of proliferation compared to untreated cells. Cells that were treated with anti-IL-10 antibody and 32 μM O-1966 had 43% suppression of proliferation compared to wells that received anti-IL-10 antibody only.

Tregs = Tregs (Foxp3+ CD4+) in the MLR by flow cytometry; type: cell-based, mouse; settings: 48 hours
Protocol: An MLR assay was performed in which experimental wells received 32 μM/ml of O-1966 and control wells received vehicle (FIG. 8). At 48 hours, cells were harvested and stained for expression of Foxp3 and CD4 (Cells that are double positive for these two markers are considered Tregs). Cells were analyzed for marker expression by flow cytometry. Wells that received no treatment had 2.1%+/−0.14 Tregs compared to wells that were treated with 32 μM O-1966 which had 4.3%+/−0.27 Tregs. These differences were statistically significant, as 20,000 cells were counted in each group. Tregs are a relatively newly recognized subset of T-cells that suppress T-cell immune responses. Thus, an increase their number induced by the CB2 receptor agonist provides a second mechanism by which the cannabinoid is altering T-cell responsiveness in the MLR assay.
An MLR was performed in which some wells received 1.6 μg/ml of anti-IL-10 antibody (FIG. 10). Cells were harvested at 48 hours and stained as described under #3 above for Tregs. Cells that received 32 μM O-1966 and no anti-IL-10 antibody had 4.3%+/−0.28 Tregs. Wells that received only anti-IL-10 antibody and no O-1966, had 1.7%+/−0.16 Tregs. Wells that received anti-IL-10 antibody in addition to 32 μM O-1966 had 2.9%+/−0.25 Tregs.

[4] = tested on: C57Bl/6 mice with skin grafts from C3HeB/FeJ mice; experiment: Skin graft rejection in mice; type: in vivo, mouse; settings: 5 mg/kg intraperitoneal every other day for 14 days
Protocol: Groups of C57Bl/6 mice received skin grafts from C3HeB/FeJ mice that are histoincompatible (FIG. 11). Starting one hour before grafting mice were treated by intraperitoneal injection with either 5 mg/kg of the CB2 receptor agonist, O-1966, or vehicle. (Volumes were based on weight. but were usually approximately 0.2 ml.) every other day for 14 days, and monitored for graft rejection. Mice that received O-1966 treatment had viable grafts 2.7 days longer than vehicle treated mice, which was statistically significant.

[5] = tested on: splenocytes from skin graft recipient mice; experiment: Ex vivo MLR of splenocytes from treated skin graft recipient mice; set-up: species or system mouse; settings: 5 mg/kg every other day 14 days; spleens day 14; 48 hr in culture
Protocol: Splenocytes from O-1966 treated skin graft recipient mice have decreased proliferation in an ex vivo MLR. (FIG. 12). Groups of mice received skin grafts and were treated with either 5 mg/kg O-1966 or vehicle every other day for 14 days. Spleens were removed on day 14 and placed in an MLR assay. The cells were restimulated in vitro with splenocytes from an incompatible mouse strain, but they received no additional treatment with a cannabinoid in vitro.

splenic Tregs = experiment: Splenic Tregs of treated skin graft recipient mice by flow cytometry; type: in vivo, mouse
Protocol: O-1966 treated mice that received skin grafts have an increased percentage of splenic Tregs. (FIGS. 13 and 14): Spleen cells taken from the animals described in C1 above were harvested from animals, and a sample was immediately analyzed by flow cytometry. Another sample was placed in culture for 48 hours. […] Cells that were harvested after 48 hours in the MLR had 4.75% Tregs in the vehicle treated mice and 9.7% Tregs in the O-1966 treated mice.

[6] = Spleen weight of treated skin graft recipient mice; type: in vivo, mouse; settings: Day 14, 5 mg/kg every other day
Source text: Spleens were removed on Day 14 and weighed. Spleens from vehicle treated mice were 0.093+/−0.01 grams and spleens from O-1966 mice were 0.077+/−0.006 grams. Spleens of untreated mice average 0.072+/−0.009 grams (historical data). The average spleen weight index ([spleen weight/body weight]×100) was 0.46% in vehicle treated mice and 0.38% in O-1966 treated mice.

[7] = tested on: IL-2 release from splenocytes from CB2R-/- KO mice; experiment: IL-2 release in MLR supernatants by ELISA, CB2R-/- KO splenocytes; settings: supernatants at 24 hours

With SR144528 [reference compound] the “Block of suppression of the MLR by JWH-015 and O-1966” value ([1]; antagonist 32-320 μM added 2 h before agonist (16 and 32 μM)) was “blocked suppression”.

In the case of `CCCCCc1cc(O)c2c(c1)OC(C)(C)[C@@H]1CCC(C)=C[C@@H]21` [THC (Marinol), Δ^9-tetrahydrocannabinol], the “Inhibition of the MLR” value [2] is listed as “inhibit the MLR” and the “Immunosuppression in plaque-formation cell assays” value (mouse splenocytes) is listed as “induce dose-related immunosuppression”.

With `CCCn1c(C)c(C(=O)c2cccc3ccccc23)c2ccccc21` [JWH-015, reference compound] the “Inhibition of the MLR” value [1] was “markedly inhibited the MLR”.

For `CCCCC/C=C\C/C=C\C/C=C\C/C=C\CCCC(=O)NCCO` [anandamide, arachidonoylethanolamide], the “Immunosuppression in plaque-formation cell assays” value (mouse splenocytes) is listed as “induce dose-related immunosuppression”.

In the case of `CCCCCCC(C)(C)c1cc(OC)c(C2(O)CCCC(C)C2)c(OC)c1` (centres unmarked) [O-1966, 1-{4-(1,1-Dimeyhyl-heptyl)-2,6-dimethoxy-phenyl}-3-methyl-cyclohexanol], the Suppression of proliferation ([1]; 32 μM plus 1.6 μg/ml anti-IL-10 antibody, compared to antibody only) is reported as 43%, the Suppression of proliferation ([1]; 32 μM, no antibody, compared to untreated cells) is reported as 90% and the “Inhibition of the MLR” value [1] is reported as “markedly inhibited the MLR”. The “Effect on cell death (live versus dead cells)” value (MLR culture cells) was “did not affect cell death”, the “SI values, CD3+ treated versus CD11b+ treated fractions” value [3] was “selectively reduced the SI values for cultures in which the CD3^+ cells were treated” and the “CD40L mRNA expression” value (CD3+ T-cell population) was −4.60 fold. The “Cyclin D3 mRNA expression” value (CD3+ T-cell population) was −4.10 fold, the “IL-10 mRNA expression” value (CD3+ T-cell population) was 4.74 fold and the “Sla2 mRNA expression” value (CD3+ T-cell population) was 4.75 fold. The “Socs5 mRNA expression” value (CD3+ T-cell population) was 4.37 fold, the “IL-10 release in the MLR” value (IL-10 release in the MLR) was 96.75 pg/mL and the “Increase of IL-10 release in the MLR” value (IL-10 release in the MLR) was 2.46 fold. For the same molecule, the “Tregs (Foxp3+ CD4+)” value (Tregs; 32 μM O-1966 plus 1.6 μg/ml anti-IL-10 antibody) was 2.9%+/−0.25, the “Tregs (Foxp3+ CD4+)” value (Tregs; 32 μM, no anti-IL-10 antibody) was 4.3%+/−0.27 and 4.3%+/−0.28 and the “Viable grafts longer than vehicle treated mice” value [4] was 2.7 days. The “Decreased proliferation in ex vivo MLR compared to vehicle treated mice” value [5] was 50%, the “Tregs (CD4+, Foxp3+) of the CD4 cells” value (splenic Tregs; analyzed immediately after sacrifice, day 14, 5 mg/kg) was 32.2% and the “Tregs after 48 hours in the MLR” value (splenic Tregs; ex vivo MLR 48 hours, 5 mg/kg in vivo) was 9.7%. For the same molecule, the “Average spleen weight index ([spleen weight/body weight]×100)” value [6] was 0.38%, the Spleen weight [6] was 0.077+/−0.006 grams and the “Inhibition of IL-2 release” value [7] was “without effect”.
